Assays:
[1] = target: T1, mu opioid receptor (MOR) (Homo sapiens, UniProt P35372); assay: Hit Hunter cAMP signaling assay (adenylyl cyclase inhibition), PAM mode with EC20 endomorphin-1; assay type: cell-based; conditions: for allosteric activity for cAMP signaling: EC20 endomorphin-1 concentration of 0.45 nM
[2] = target: T1, mu opioid receptor (MOR); assay: PathHunter β-arrestin recruitment assay, PAM mode with EC20 endomorphin-1; assay type: cell-based; conditions: for allosteric activity for β-arrestin recruitment: EC20 endomorphin-1 concentration of 4.5 nM
Summary of the method: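 Enzyme fragment complementation read-out: β-gal ED fragment fused to receptor, EA fused to β-arrestin, recruitment restoring β-gal activity detected by chemiluminescence. EC50 and percent maximal response derived for each compound.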

[3] = cAMP EC50, adenylyl cyclase inhibition
[4] = maximal response for adenylyl cyclase inhibition
[5] = maximal response for β-arrestin recruitment
[6] = β-arrestin recruitment, read-out: β-arr. EC50
[7] = adenylyl cyclase inhibition, read-out: cAMP EC50

T1 sequence (P35372 whole entry): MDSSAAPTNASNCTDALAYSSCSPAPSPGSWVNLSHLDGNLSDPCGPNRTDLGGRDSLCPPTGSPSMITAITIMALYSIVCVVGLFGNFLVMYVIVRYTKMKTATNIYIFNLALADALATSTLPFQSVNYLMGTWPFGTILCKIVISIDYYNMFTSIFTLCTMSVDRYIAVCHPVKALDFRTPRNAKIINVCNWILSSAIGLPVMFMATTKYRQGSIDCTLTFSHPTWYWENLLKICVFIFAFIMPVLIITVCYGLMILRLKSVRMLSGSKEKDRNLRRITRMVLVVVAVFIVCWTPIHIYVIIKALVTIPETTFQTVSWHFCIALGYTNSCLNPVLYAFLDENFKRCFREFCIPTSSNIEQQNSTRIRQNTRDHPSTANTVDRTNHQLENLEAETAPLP

[2H]C1(c2cccc(C(F)(F)F)c2)C(F)CCCN1c1nc(Cl)ncc1F (centres unmarked) [compound 207]
EC50 ([1]; cAMP EC50 (nM), adenylyl cyclase inhibition, Table 3): 969 nM | EC50 [1, 3]: 700 to 2100 nM | cAMP Max. Resp. [1, 4]: D (D represents a maximal response of < 40%) | cAMP Max Resp. ([1]; maximal response for adenylyl cyclase inhibition, Table 3): 34 | β-arr Max. Resp. [2, 5]: F (F represents a maximal response of > 60%) | β-arr. Max Resp. ([2]; maximal response for β-arrestin recruitment, Table 3): 116 | EC50 ([2]; β-arrestin recruitment, Table 3, read-out: β-arr. EC50): 1.17 µM | EC50 [2, 6]: 0.7 to 2.1 µM

Fc1ccc(C2C(F)CCCN2c2nc(Cl)ncc2F)cc1Br (centres unmarked) [compound 210]
EC50 [1, 3]: 700 to 2100 nM | cAMP Max. Resp. [1, 4]: E (E represents a maximal response of 40-60%) | β-arr Max. Resp. [2, 5]: F (F represents a maximal response of > 60%) | EC50 [2, 6]: > 2.1 µM

Fc1ccc(C2C(F)CCCN2c2nc(Cl)ncc2F)cc1Br (centres unmarked) [compound 211]
EC50 [1, 3]: > 2100 nM | cAMP Max. Resp. [1, 4]: E (E represents a maximal response of 40-60%) | β-arr Max. Resp. [2, 5]: F (F represents a maximal response of > 60%) | EC50 [2, 6]: > 2.1 µM

COc1ccc(C2C(F)CCCN2c2nc(Cl)ncc2F)cc1Br (centres unmarked) [compound 212]
EC50 [1, 3]: > 2100 nM | cAMP Max. Resp. [1, 4]: E (E represents a maximal response of 40-60%) | β-arr Max. Resp. [2, 5]: F (F represents a maximal response of > 60%) | EC50 [2, 6]: > 2.1 µM

COc1ccc(C2C(F)CCCN2c2nc(Cl)ncc2F)cc1Br (centres unmarked) [compound 213]
cAMP Max. Resp. [1, 4]: D (D represents a maximal response of < 40%) | EC50 ([1]; read-out: cAMP EC50, adenylyl cyclase inhibition): > 2100 nM | β-arr Max. Resp. [2, 5]: F (F represents a maximal response of > 60%) | EC50 [2, 6]: > 2.1 µM

Fc1ccc(C2C(F)CCCN2c2nc(Cl)ncc2F)cc1Br (centres unmarked) [compound 214]
EC50 [1, 7]: 700 to 2100 nM | EC50 [2, 6]: > 2.1 µM

[2H]C1(c2ccc(F)c(Br)c2)C(F)CCCN1c1nc(Cl)ncc1F (centres unmarked) [compound 214]
cAMP Max. Resp. [1, 4]: E (E represents a maximal response of 40-60%) | β-arr Max. Resp. [2, 5]: F (F represents a maximal response of > 60%)

COc1ccc(C2CCCCN2c2cc(F)cc(Cl)n2)cc1Br (centres unmarked) [compound 215]
EC50 [1, 3]: > 2100 nM | cAMP Max. Resp. [1, 4]: D (D represents a maximal response of < 40%) | β-arr Max. Resp. [2, 5]: F (F represents a maximal response of > 60%) | EC50 [2, 6]: 0.7 to 2.1 µM

Fc1cc(C2C3CCC(C3)N2Cc2cc(Cl)ccc2F)cc(C(F)(F)F)c1 (centres unmarked) [compound 216]
allosteric activity for cAMP signaling [1]: silent allosteric activity | EC50 [1, 3]: > 2100 nM | cAMP Max. Resp. [1, 4]: D (D represents a maximal response of < 40%) | allosteric activity for β-arrestin recruitment [2]: high positive allosteric activity | allosteric activity for β-arrestin recruitment ([2]; listed as Compound No. 216): high allosteric modulatory capability | β-arr Max. Resp. [2, 5]: F (F represents a maximal response of > 60%) | EC50 [2, 6]: < 0.7 µM

Fc1ccc(C2C3CCC(C3)N2Cc2cc(Cl)ccc2F)cc1Cl (centres unmarked) [compound 217]
EC50 [1]: > 2100 nM | cAMP Max. Resp. [1, 4]: D (D represents a maximal response of < 40%) | β-arr Max. Resp. [2, 5]: F (F represents a maximal response of > 60%) | EC50 ([2]; β-arr. EC50, β-arrestin recruitment): 0.7 to 2.1 µM

N#Cc1cccc(N2CCCCC2c2ccc(F)c(Cl)c2)c1 (centres unmarked) [compound 218]
EC50 [1, 7]: > 2100 nM | cAMP Max. Resp. [1, 4]: D (D represents a maximal response of < 40%) | β-arr Max. Resp. [2, 5]: E (E represents a maximal response of 40-60%) | EC50 [2, 6]: 0.7 to 2.1 µM

COc1ccc(C2C(F)CCCN2S(=O)(=O)c2ccc(Cl)cc2)cc1Br (centres unmarked) [compound 219]
allosteric activity for cAMP signaling [1]: high positive allosteric activity | EC50 [1, 3]: < 700 nM | cAMP Max. Resp. [1, 4]: F (F represents a maximal response of > 60%) | allosteric activity for β-arrestin recruitment [2]: low positive allosteric activity | signaling preference β-arrestin vs cAMP ([2]; comparison of β-arrestin and cAMP assays): preferential signaling via cAMP over β-arrestin | β-arr Max. Resp. [2, 5]: F (F represents a maximal response of > 60%) | EC50 [2, 6]: 0.7 to 2.1 µM

COc1ncc(F)c(N2CCCCC2c2ccc(OC)c(Br)c2)n1 (centres unmarked) [compound 225]
EC50 [1, 3]: > 2100 nM | cAMP Max. Resp. [1, 4]: F (F represents a maximal response of > 60%) | β-arr Max. Resp. [2, 5]: F (F represents a maximal response of > 60%) | EC50 [2, 6]: > 2.1 µM

COc1ccc(C2CCCCN2c2ccnc(Cl)n2)cc1Br (centres unmarked) [compound 226]
EC50 [1, 3]: > 2100 nM | cAMP Max. Resp. [1, 4]: F (F represents a maximal response of > 60%) | β-arr Max. Resp. [2, 5]: F (F represents a maximal response of > 60%) | EC50 [2, 6]: > 2.1 µM

COc1ccc(C2CCCCN2c2cccc(C(F)(F)F)n2)cc1Br (centres unmarked) [compound 227]
EC50 [1, 3]: > 2100 nM | cAMP Max. Resp. [1, 4]: F (F represents a maximal response of > 60%) | β-arr Max. Resp. [2, 5]: F (F represents a maximal response of > 60%) | EC50 [2, 6]: > 2.1 µM

COc1ccc(C2CCCCN2c2ncnc(Cl)c2F)cc1Br (centres unmarked) [compound 228]
EC50 [1, 3]: > 2100 nM | cAMP Max. Resp. [1, 4]: F (F represents a maximal response of > 60%) | β-arr Max. Resp. [2, 5]: F (F represents a maximal response of > 60%) | EC50 [2, 6]: > 2.1 µM

COc1ccc(C2CCCCN2c2cncc(Cl)n2)cc1Br (centres unmarked) [compound 229]
EC50 [1, 3]: > 2100 nM | cAMP Max. Resp. [1, 4]: F (F represents a maximal response of > 60%) | β-arr Max. Resp. [2, 5]: F (F represents a maximal response of > 60%) | EC50 [2, 6]: > 2.1 µM

— patent US11071731B2, “Allosteric modulators of the mu opioid receptor” (Chiromics, LLC, priority 2017, dated 2021)
